In ChEMBL document CHEMBL1909046, “DrugMatrix in vitro pharmacology data”:

How the values were obtained:
[1] = target: T1, Muscarinic acetylcholine receptor M5 (Homo sapiens, UniProt P08912); format: cell membranes, CHO-K1, Membrane; conditions: cho-k1; further: in other assays of this panel Not Active means under 50% inhibition at 10 µM
T1 sequence (P08912 whole entry): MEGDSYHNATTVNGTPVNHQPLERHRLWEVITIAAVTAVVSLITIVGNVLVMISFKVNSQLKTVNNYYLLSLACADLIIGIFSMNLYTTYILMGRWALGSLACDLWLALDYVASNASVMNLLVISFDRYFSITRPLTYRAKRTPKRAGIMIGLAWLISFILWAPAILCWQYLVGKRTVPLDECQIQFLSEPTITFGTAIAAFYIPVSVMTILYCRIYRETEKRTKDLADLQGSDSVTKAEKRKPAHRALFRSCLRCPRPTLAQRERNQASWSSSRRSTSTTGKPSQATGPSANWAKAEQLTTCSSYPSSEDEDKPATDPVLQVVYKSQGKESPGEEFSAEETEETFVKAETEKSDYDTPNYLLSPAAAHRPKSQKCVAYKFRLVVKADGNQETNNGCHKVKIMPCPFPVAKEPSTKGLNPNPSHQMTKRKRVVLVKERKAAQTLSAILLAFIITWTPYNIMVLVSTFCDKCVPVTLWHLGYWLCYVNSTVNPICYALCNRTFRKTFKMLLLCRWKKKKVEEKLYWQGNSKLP

[2] = target: T2, Amine oxidase [flavin-containing] A (Homo sapiens, UniProt P21397); assay: DRUGMATRIX: Monoamine Oxidase MAO-A enzyme inhibition (substrate: Kynuramine); parameters: species or system BTI-TN-5B1-4; conditions: Not Active = under 50% inhibition at 10 µM
T2 sequence (P21397 whole entry): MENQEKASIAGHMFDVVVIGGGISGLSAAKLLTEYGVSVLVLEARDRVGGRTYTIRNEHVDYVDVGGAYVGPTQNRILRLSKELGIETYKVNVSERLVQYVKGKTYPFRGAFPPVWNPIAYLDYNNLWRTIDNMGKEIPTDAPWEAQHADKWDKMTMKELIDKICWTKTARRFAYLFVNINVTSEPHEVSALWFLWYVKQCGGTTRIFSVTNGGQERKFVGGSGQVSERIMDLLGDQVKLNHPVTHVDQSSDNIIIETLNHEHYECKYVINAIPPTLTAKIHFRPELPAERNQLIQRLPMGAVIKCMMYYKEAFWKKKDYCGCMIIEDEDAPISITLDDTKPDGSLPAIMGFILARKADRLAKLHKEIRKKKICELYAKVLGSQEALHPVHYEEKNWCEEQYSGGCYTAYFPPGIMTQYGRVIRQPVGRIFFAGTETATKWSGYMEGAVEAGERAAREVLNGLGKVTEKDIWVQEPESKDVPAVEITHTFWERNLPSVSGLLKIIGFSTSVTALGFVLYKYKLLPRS

[3] = target: Protein kinase C alpha type (Homo sapiens, UniProt P17252); format: cell-based; conditions: sf9;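 further: inhibition of PKCalpha kinase activity measured in an enzyme assay with histone as the phosphorylation substrate; in other assays of this panel Not Active means under 50% inhibition at 10 µM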
[4] = target: 5-hydroxytryptamine receptor 1B (Rattus norvegicus, UniProt P28564); format: cell membranes, Wistar, Cerebral cortex, Membrane; further: in other assays of this panel Not Active means under 50% inhibition at 10 µM
Nitric oxide synthase 1 = Nitric oxide synthase 1 (Rattus norvegicus, UniProt P29476); format: tissue-based, Cerebellum; further: in other assays of this panel Not Active means under 50% inhibition at 10 µM
Caspase-1 = target: T3, Caspase-1 (Homo sapiens, UniProt P29466); parameters: species or system Escherichia coli
T3 sequence (P29466 whole entry): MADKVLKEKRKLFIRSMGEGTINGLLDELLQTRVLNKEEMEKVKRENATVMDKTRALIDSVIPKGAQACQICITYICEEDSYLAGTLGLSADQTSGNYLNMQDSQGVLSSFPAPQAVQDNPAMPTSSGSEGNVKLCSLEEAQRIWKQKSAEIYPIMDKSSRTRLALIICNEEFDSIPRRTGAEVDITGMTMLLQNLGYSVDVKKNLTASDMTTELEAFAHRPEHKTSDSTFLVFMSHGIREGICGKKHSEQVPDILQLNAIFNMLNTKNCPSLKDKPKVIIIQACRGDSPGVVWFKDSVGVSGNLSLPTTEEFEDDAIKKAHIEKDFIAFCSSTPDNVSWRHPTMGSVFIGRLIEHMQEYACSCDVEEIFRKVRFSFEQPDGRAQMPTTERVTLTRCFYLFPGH

[5] = target: T4, Neuropeptide Y receptor type 2 (Homo sapiens, UniProt P49146); format: cell membranes, Membrane; conditions: kan-ts; further: in other assays of this panel Not Active means under 50% inhibition at 10 µM
T4 sequence (P49146 whole entry): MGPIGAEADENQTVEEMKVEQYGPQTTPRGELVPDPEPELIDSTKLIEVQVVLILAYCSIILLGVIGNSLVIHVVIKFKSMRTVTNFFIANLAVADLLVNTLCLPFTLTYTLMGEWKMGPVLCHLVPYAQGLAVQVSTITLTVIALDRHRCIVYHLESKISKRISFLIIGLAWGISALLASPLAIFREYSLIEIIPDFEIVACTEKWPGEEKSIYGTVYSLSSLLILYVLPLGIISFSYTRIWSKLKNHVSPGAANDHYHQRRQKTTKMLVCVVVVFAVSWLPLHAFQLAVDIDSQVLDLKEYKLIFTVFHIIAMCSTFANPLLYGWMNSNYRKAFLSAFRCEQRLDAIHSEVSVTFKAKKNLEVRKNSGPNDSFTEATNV

Chain of Nitric oxide synthase 1 (P29476 whole entry): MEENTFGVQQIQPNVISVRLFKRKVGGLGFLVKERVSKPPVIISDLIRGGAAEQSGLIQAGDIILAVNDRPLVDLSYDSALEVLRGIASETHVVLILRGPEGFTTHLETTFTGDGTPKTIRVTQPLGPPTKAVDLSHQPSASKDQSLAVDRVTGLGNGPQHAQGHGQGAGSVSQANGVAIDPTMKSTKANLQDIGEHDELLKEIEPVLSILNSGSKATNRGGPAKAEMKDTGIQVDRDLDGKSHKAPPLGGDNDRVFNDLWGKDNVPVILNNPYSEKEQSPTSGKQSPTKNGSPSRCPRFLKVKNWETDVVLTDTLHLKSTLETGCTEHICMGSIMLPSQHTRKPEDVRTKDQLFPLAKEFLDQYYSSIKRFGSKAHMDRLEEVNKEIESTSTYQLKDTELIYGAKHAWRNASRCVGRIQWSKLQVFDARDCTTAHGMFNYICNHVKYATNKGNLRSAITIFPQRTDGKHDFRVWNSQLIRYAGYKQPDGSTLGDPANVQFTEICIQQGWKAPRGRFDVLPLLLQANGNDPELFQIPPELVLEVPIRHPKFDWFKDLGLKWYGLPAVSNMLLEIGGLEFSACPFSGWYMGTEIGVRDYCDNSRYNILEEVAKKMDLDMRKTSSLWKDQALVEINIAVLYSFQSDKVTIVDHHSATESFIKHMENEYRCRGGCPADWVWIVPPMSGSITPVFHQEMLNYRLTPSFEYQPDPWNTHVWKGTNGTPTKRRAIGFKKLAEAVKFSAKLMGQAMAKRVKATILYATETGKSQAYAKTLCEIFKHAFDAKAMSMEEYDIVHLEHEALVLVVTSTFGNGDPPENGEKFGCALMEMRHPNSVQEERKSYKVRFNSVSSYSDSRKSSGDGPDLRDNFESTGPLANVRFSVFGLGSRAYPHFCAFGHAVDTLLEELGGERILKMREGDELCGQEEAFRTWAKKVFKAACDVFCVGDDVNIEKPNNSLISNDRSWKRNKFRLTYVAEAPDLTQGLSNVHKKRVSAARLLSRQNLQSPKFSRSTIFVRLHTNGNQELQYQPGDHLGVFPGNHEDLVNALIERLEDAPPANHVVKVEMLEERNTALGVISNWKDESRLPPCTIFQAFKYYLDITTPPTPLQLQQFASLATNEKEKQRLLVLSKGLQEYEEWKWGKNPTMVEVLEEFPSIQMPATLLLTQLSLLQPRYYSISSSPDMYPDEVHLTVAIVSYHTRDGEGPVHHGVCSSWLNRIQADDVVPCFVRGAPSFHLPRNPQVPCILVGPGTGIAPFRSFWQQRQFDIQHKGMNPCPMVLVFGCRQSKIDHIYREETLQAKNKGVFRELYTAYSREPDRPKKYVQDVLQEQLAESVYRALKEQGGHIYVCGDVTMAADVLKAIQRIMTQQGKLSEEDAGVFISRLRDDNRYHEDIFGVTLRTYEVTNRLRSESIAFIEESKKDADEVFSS
Chain of 5-hydroxytryptamine receptor 1B (P28564 whole entry): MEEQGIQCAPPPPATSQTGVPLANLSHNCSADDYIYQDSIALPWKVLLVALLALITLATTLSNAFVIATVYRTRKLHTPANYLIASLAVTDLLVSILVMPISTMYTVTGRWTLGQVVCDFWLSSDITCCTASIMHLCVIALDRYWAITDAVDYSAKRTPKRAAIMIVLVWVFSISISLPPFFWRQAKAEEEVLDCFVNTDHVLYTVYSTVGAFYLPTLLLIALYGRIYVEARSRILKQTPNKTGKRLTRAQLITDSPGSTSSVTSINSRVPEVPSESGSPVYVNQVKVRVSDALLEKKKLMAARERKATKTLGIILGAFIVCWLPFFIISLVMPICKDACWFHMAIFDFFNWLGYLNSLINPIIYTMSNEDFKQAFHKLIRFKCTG

| Compound | IC50 [1] | IC50 ([2]; bti-tn-5b1-4) | IC50 [3] | IC50 [4] | IC50 (Nitric oxide synthase 1) | IC50 (Caspase-1) | IC50 [5] | IC50 ([2]; read-out: IC50) [µM] | Ki [1] | Ki ([2]; bti-tn-5b1-4) | Ki [3] | Ki [4] | Ki (Nitric oxide synthase 1) | Ki (Caspase-1) | Ki [5] |
| --- | --- | --- | --- | --- | --- | --- | --- | --- | --- | --- | --- | --- | --- | --- | --- |
| O=C1c2ccccc2C(=O)C1c1ccccc1 [PHENINDIONE] | Not Active | Not Active | Not Active | Not Active | Not Active | Not Active | Not Active |  |  |  |  |  |  |  |  |
| Clc1cc(Cl)c(OCC#CI)cc1Cl [HALOPROGIN] | Not Active | Not Active | Not Active | Not Active | Not Active | Not Active | Not Active |  |  |  |  |  |  |  |  |
| C[C@H]1C[C@H]2[C@@H]3CCC4=CC(=O)C=C[C@]4(C)[C@@]3(F)[C@@H](O)C[C@]2(C)[C@@]1(O)C(=O)CO [BETAMETHASONE] | Not Active | Not Active | Not Active | Not Active | Not Active | Not Active | Not Active |  |  |  |  |  |  |  |  |
| COc1ccc(Cl)cc1C(=O)NCCc1ccc(S(=O)(=O)NC(=O)NC2CCCCC2)cc1 [GLYBURIDE] | Not Active | Not Active | Not Active | Not Active | Not Active | Not Active | Not Active |  |  |  |  |  |  |  |  |
| CC1(COc2ccc(CC3SC(=O)NC3=O)cc2)CCCCC1 (stereo not given) [CIGLITAZONE] | Not Active |  | Not Active | Not Active | Not Active | Not Active | Not Active | 29.2 |  |  |  |  |  |  |  |
| Cc1ccnc2c1NC(=O)c1cccnc1N2C1CC1 [NEVIRAPINE] | Not Active | Not Active | Not Active | Not Active | Not Active | Not Active | Not Active |  |  |  |  |  |  |  |  |
| CNC[C@H](O)c1ccc(O)c(O)c1 [EPINEPHRINE] | Not Active | Not Active | Not Active | Not Active | Not Active | Not Active | Not Active |  |  |  |  |  |  |  |  |
| CN(Cc1cc(Br)cc(Br)c1N)C1CCCCC1 [BROMHEXINE] | Not Active | Not Active | Not Active | Not Active | Not Active | Not Active | Not Active |  |  |  |  |  |  |  |  |
| COPPER(II) OXIDE | Not Active | Not Active | Not Active | Not Active | Not Active | Not Active | Not Active |  | Not Active | Not Active | Not Active | Not Active | Not Active | Not Active | Not Active |
| CCN1C[C@]2(COC)[C@H](O)C[C@H](OC)[C@@]34[C@@H]5C[C@@]6(O)[C@H](OC(=O)c7ccccc7)[C@@H]5[C@@](OC(C)=O)([C@@H]([C@H](OC)[C@H]23)[C@@H]14)[C@@H](O)[C@@H]6OC [ACONITINE] | Not Active | Not Active | Not Active | Not Active | Not Active | Not Active | Not Active |  |  |  |  |  |  |  |  |
| COc1ccc(C[C@H](N)C(=O)N[C@H]2[C@@H](O)[C@H](n3cnc4c(N(C)C)ncnc43)O[C@@H]2CO)cc1 [PUROMYCIN] | Not Active | Not Active | Not Active | Not Active | Not Active | Not Active | Not Active |  |  |  |  |  |  |  |  |
| OC[C@H]1OC2C3[C@@H](CO)OC(O[C@H]4[C@H](O)[C@@H](O)[C@@H](O[C@H]5[C@H](O)[C@@H](O)[C@@H](O[C@H]6[C@H](O)[C@@H](O)[C@@H](O[C@H]7[C@H](O)[C@@H](O)[C@@H](O[C@H]8[C@H](O)[C@@H](O)[C@@H](O[C@H]9[C@H](O)[C@@H](O)C(OC1[C@H](O)[C@H]2O)O[C@@H]9CO)O[C@@H]8CO)O[C@@H]7CO)O[C@@H]6CO)O[C@@H]5CO)O[C@@H]4CO)[C@H](O)[C@H]3O | Not Active | Not Active | Not Active | Not Active | Not Active | Not Active | Not Active |  |  |  |  |  |  |  |  |
| NC(N)=Nc1nc(CSCCC(N)=NS(N)(=O)=O)cs1 [FAMOTIDINE] | Not Active | Not Active | Not Active | Not Active | Not Active | Not Active | Not Active |  |  |  |  |  |  |  |  |
| C[N+](C)(C)CCOP(=O)([O-])OC[C@H](O)CO | Not Active | Not Active | Not Active | Not Active | Not Active | Not Active | Not Active |  |  |  |  |  |  |  |  |
| COc1cc(/C=C/C(=O)O)ccc1O [FERULATE] | Not Active | Not Active | Not Active | Not Active | Not Active | Not Active | Not Active |  |  |  |  |  |  |  |  |
| NC(=O)NC(=O)Cc1ccccc1 [PHENACEMIDE] | Not Active | Not Active | Not Active | Not Active | Not Active | Not Active | Not Active |  |  |  |  |  |  |  |  |
| NC(=O)CN1CCCC1=O | Not Active | Not Active | Not Active | Not Active | Not Active | Not Active | Not Active |  |  |  |  |  |  |  |  |
| CC(C)Cn1cnc2c(N)nc3ccccc3c21 [IMIQUIMOD] | Not Active | Not Active | Not Active | Not Active | Not Active | Not Active | Not Active |  |  |  |  |  |  |  |  |
| CCO [ALCOHOL] | Not Active | Not Active | Not Active | Not Active | Not Active | Not Active | Not Active |  |  |  |  |  |  |  |  |
| C[C@H](C(=O)O)c1ccc2oc(-c3ccc(F)cc3)nc2c1 [FLUNOXAPROFEN] | Not Active | Not Active | Not Active | Not Active | Not Active | Not Active | Not Active |  |  |  |  |  |  |  |  |
| O=C(O)c1ccccc1 [BENZOIC ACID] | Not Active | Not Active | Not Active | Not Active | Not Active | Not Active | Not Active |  |  |  |  |  |  |  |  |
| CN(CCOc1ccc(C[C@H](Nc2ccccc2C(=O)c2ccccc2)C(=O)O)cc1)c1ccccn1 | Not Active | Not Active | Not Active | Not Active | Not Active | Not Active | Not Active |  |  |  |  |  |  |  |  |
| O=c1[nH]cnc2c1ncn2[C@H]1CC[C@@H](CO)O1 [DIDANOSINE] | Not Active | Not Active | Not Active | Not Active | Not Active | Not Active | Not Active |  |  |  |  |  |  |  |  |
| CC(C)(c1ccc(O)cc1)c1ccc(O)cc1 [BISPHENOL A] | Not Active | Not Active | Not Active | Not Active | Not Active | Not Active | Not Active |  |  |  |  |  |  |  |  |
